Data reported in ChEMBL document CHEMBL1201862, “PubChem BioAssay data set” (2004).
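In this assay, cells in 96-well plates receive the compound at five concentrations for 48 hours. Endpoints are linearly interpolated between the surrounding concentrations. At the GI50, growth is halved.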 Activity calls are given as the source filed them. No stated cut-off is given here; in the data, active = GI50 up to about 1.1 µM and inactive = higher.

Columns and labels:
Assay in all cases: growth of human tumour cells (NCI), 48 h
[1] = tested on: UO-31
[2] = tested on: SK-MEL-28
[3] = tested on: OVCAR-8
[4] = tested on: UACC-257
[5] = tested on: CCRF-CEM
[6] = tested on: U-251
[7] = tested on: SK-MEL-5
[8] = tested on: OVCAR-4
[9] = tested on: K562
[10] = tested on: HT-29
[11] = tested on: LXFL 529
[12] = tested on: MOLT-4
[13] = tested on: 786-0
[14] = tested on: SF-539
[15] = tested on: DLD-1
[16] = tested on: NCI-H226
[17] = tested on: HCC 2998
[18] = tested on: A549
[19] = tested on: RPMI-8226
[20] = tested on: KM-20L2
[21] = tested on: ACHN
[22] = tested on: NCI-H522
[23] = tested on: NCI-H23
[24] = tested on: LOX IMVI
[25] = tested on: OVCAR-3
[26] = tested on: M19-MEL
[27] = tested on: HOP-92
[28] = tested on: COLO 205
[29] = tested on: HL-60
[30] = tested on: SR
[31] = tested on: SNB-75
[32] = tested on: SK-OV-3
[33] = tested on: OVCAR-5
[34] = tested on: HCT-116
[35] = tested on: HOP-18
[36] = tested on: IGROV-1
[37] = tested on: SF-268
[38] = tested on: TK-10
[39] = tested on: DMS-114
[40] = tested on: XF498
[41] = tested on: SW-620
[42] = tested on: KM12
[43] = tested on: HOP-62
[44] = tested on: A498
[45] = tested on: SF-295
[46] = tested on: Malme-3M
[47] = tested on: UACC-62
[48] = tested on: EKVX
[49] = tested on: CAKI-1
[50] = tested on: SNB-19
[51] = tested on: M14
[52] = tested on: SN12C
[53] = tested on: SK-MEL-2
[54] = tested on: NCI-H460
[55] = tested on: SNB-78
[56] = tested on: DMS-273
[57] = tested on: HCT-15

Q: For `CCCCCCCCCCCCCC(=O)OCC1OC(=O)C(O)C1O` (stereo not given), which GI50 [1] is on record?
A: > 100 µM (inactive)

Q: And the GI50 [2]?
A: > 100 µM (inactive)

Q: What about the GI50 [3] of the same compound?
A: > 100 µM (inactive)

Q: What about the GI50 [4] of the same compound?
A: > 100 µM (inactive)

Q: What about the GI50 [5] of the same compound?
A: > 100 µM (inactive)

Q: What about the GI50 [6] of the same compound?
A: > 100 µM (inactive)

Q: And the GI50 [7]?
A: > 100 µM (inactive)

Q: What about the GI50 [8] of the same compound?
A: > 100 µM (inactive)

Q: And the GI50 [9]?
A: 73.8 µM (inactive)

Q: And the GI50 [10]?
A: > 100 µM (inactive)

Q: What about the GI50 [11] of the same compound?
A: > 100 µM (inactive)

Q: What about the GI50 [12] of the same compound?
A: > 100 µM (inactive)

Q: What about the GI50 [13] of the same compound?
A: > 100 µM (inactive)

Q: And the GI50 [14]?
A: > 100 µM (inactive)

Q: And the GI50 [15]?
A: > 100 µM (inactive)

Q: And the GI50 [16]?
A: > 100 µM (inactive)

Q: And the GI50 [17]?
A: > 100 µM (inactive)

Q: What about the GI50 [18] of the same compound?
A: > 100 µM (inactive)

Q: What about the GI50 [19] of the same compound?
A: > 100 µM (inactive)

Q: And the GI50 [20]?
A: > 100 µM (inactive)

Q: What about the GI50 [21] of the same compound?
A: > 100 µM (inactive)

Q: What about the GI50 [22] of the same compound?
A: > 100 µM (inactive)

Q: What about the GI50 [23] of the same compound?
A: > 100 µM (inactive)

Q: What about the GI50 [24] of the same compound?
A: > 100 µM (inactive)

Q: What about the GI50 [25] of the same compound?
A: > 100 µM (inactive)

Q: And the GI50 [26]?
A: > 100 µM (inactive)

Q: What about the GI50 [27] of the same compound?
A: > 100 µM (inactive)

Q: And the GI50 [28]?
A: > 100 µM (inactive)

Q: And the GI50 [29]?
A: > 100 µM (inactive)

Q: What about the GI50 [30] of the same compound?
A: > 100 µM (inactive)

Q: And the GI50 [31]?
A: > 100 µM (inactive)

Q: And the GI50 [32]?
A: > 100 µM (inactive)

Q: And the GI50 [33]?
A: > 100 µM (inactive)

Q: And the GI50 [34]?
A: > 100 µM (inactive)

Q: And the GI50 [35]?
A: > 100 µM (inactive)

Q: And the GI50 [36]?
A: > 100 µM (inactive)

Q: What about the GI50 [37] of the same compound?
A: > 100 µM (inactive)

Q: What about the GI50 [38] of the same compound?
A: > 100 µM (inactive)

Q: What about the GI50 [39] of the same compound?
A: > 100 µM (inactive)

Q: What about the GI50 [40] of the same compound?
A: > 100 µM (inactive)

Q: What about the GI50 [41] of the same compound?
A: > 100 µM (inactive)

Q: What about the GI50 [42] of the same compound?
A: > 100 µM (inactive)

Q: What about the GI50 [43] of the same compound?
A: > 100 µM (inactive)

Q: And the GI50 [44]?
A: > 100 µM (inactive)

Q: What about the GI50 [45] of the same compound?
A: 88.7 µM (inactive)

Q: And the GI50 [46]?
A: > 100 µM (inactive)

Q: What about the GI50 [47] of the same compound?
A: > 100 µM (inactive)

Q: And the GI50 [48]?
A: > 100 µM (inactive)

Q: And the GI50 [49]?
A: > 100 µM (inactive)

Q: What about the GI50 [50] of the same compound?
A: > 100 µM (inactive)

Q: What about the GI50 [51] of the same compound?
A: > 100 µM (inactive)

Q: And the GI50 [52]?
A: > 100 µM (inactive)

Q: `C/N=C1\S/C(=N\c2ccc(N(C)C)cc2)N1C` was tested. Which GI50 [1] did it give?
A: 31.6 µM (inactive)

Q: What about the GI50 [2] of the same compound?
A: 38.8 µM (inactive)

Q: What about the GI50 [53] of the same compound?
A: 33.9 µM (inactive)

Q: And the GI50 [3]?
A: 35.1 µM (inactive)

Q: And the GI50 [4]?
A: 47.8 µM (inactive)

Q: And the GI50 [5]?
A: 36.1 µM (inactive)

Q: What about the GI50 [54] of the same compound?
A: 36.3 µM (inactive)

Q: And the GI50 [6]?
A: 33.9 µM (inactive)

Q: And the GI50 [7]?
A: 25.2 µM (inactive)

Q: And the GI50 [8]?
A: 44.1 µM (inactive)

Q: What about the GI50 [9] of the same compound?
A: 29.7 µM (inactive)

Q: What about the GI50 [10] of the same compound?
A: 28.2 µM (inactive)

Q: And the GI50 [55]?
A: 22.9 µM (inactive)

Q: What about the GI50 [11] of the same compound?
A: 40.5 µM (inactive)

Q: What about the GI50 [12] of the same compound?
A: 43 µM (inactive)

Q: And the GI50 [13]?
A: 42.8 µM (inactive)

Q: What about the GI50 [14] of the same compound?
A: 32.1 µM (inactive)

Q: And the GI50 [15]?
A: 29.8 µM (inactive)

Q: What about the GI50 [16] of the same compound?
A: 52.1 µM (inactive)

Q: And the GI50 [17]?
A: 33.2 µM (inactive)

Q: And the GI50 [56]?
A: 54.1 µM (inactive)

Q: And the GI50 [18]?
A: 43 µM (inactive)

Q: And the GI50 [19]?
A: 34.5 µM (inactive)

Q: What about the GI50 [22] of the same compound?
A: 25.8 µM (inactive)

Q: And the GI50 [23]?
A: 32.1 µM (inactive)

Q: And the GI50 [24]?
A: 46 µM (inactive)

Q: What about the GI50 [25] of the same compound?
A: 39.4 µM (inactive)

Q: What about the GI50 [26] of the same compound?
A: 38 µM (inactive)

Q: What about the GI50 [27] of the same compound?
A: 21.8 µM (inactive)

Q: What about the GI50 [28] of the same compound?
A: 39.4 µM (inactive)

Q: And the GI50 [29]?
A: 34.4 µM (inactive)

Q: What about the GI50 [30] of the same compound?
A: 46.1 µM (inactive)

Q: And the GI50 [31]?
A: 19 µM (inactive)

Q: And the GI50 [32]?
A: 26.8 µM (inactive)

Q: What about the GI50 [33] of the same compound?
A: 75.5 µM (inactive)

Q: What about the GI50 [34] of the same compound?
A: 32.7 µM (inactive)

Q: And the GI50 [35]?
A: 35 µM (inactive)

Q: What about the GI50 [36] of the same compound?
A: 51.8 µM (inactive)

Q: And the GI50 [37]?
A: 24.9 µM (inactive)

Q: And the GI50 [38]?
A: 55.7 µM (inactive)

Q: And the GI50 [39]?
A: 17.9 µM (inactive)

Q: What about the GI50 [41] of the same compound?
A: 38.1 µM (inactive)

Q: What about the GI50 [42] of the same compound?
A: 57.1 µM (inactive)

Q: What about the GI50 [43] of the same compound?
A: > 100 µM (inactive)

Q: What about the GI50 [44] of the same compound?
A: 23 µM (inactive)

Q: What about the GI50 [57] of the same compound?
A: 30.5 µM

Q: What about the GI50 [45] of the same compound?
A: 40.4 µM (inactive)

Q: What about the GI50 [46] of the same compound?
A: 39.9 µM (inactive)

Q: What about the GI50 [47] of the same compound?
A: 33.5 µM (inactive)

Q: What about the GI50 [48] of the same compound?
A: 25 µM (inactive)

Q: What about the GI50 [50] of the same compound?
A: 42.2 µM (inactive)

Q: And the GI50 [51]?
A: 33.1 µM (inactive)

Q: What about the GI50 [52] of the same compound?
A: 31 µM (inactive)
